From patent US20240360153A1 (Regeneron Pharmaceuticals, Inc., priority 2023, published 2024)

Experiments:
[1] = In vitro microsomal metabolic stability, CD-1 mouse liver microsomes; assay type: in vitro ADME; conditions: for CLint scaled at 1 µM / microsomal CLint at 1 µM: CD-1, mouse, mouse liver microsomes, pH 7.2; for half-life at 1 µM: CD-1, pH 7.2, 0.5 mg/ml protein, NADPH; for half-life at 1 µM / Remaining (T = 60 min) / Remaining (T = NCF60 min): Mouse liver microsomes; for Remaining (T = 60 min): with NADPH; for Remaining (T = NCF60 min): without NADPH regenerating system; for Remaining (T = 60 min) / Remaining (T = NCF60 min): 60 min
Procedure, shortened: (§1)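 Compounds at 1 μM incubated at 37° C with pooled CD-1 mouse or human liver microsomes (0.5 mg/mL protein) plus NADPH regenerating system in 50 mM potassium phosphate, pH 7.2, 3.3 mM MgCl2; sampled at 0–60 min, 60-min no-NADPH control. Parent loss by LC/MS/MS analyte/IS peak-area ratio, n=1.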

[2] = tested on: S6K1 (Thr389) phosphorylation (mTORC1 activity) in FKBP12 knock-out 293T cells; assay: Inhibition of S6K1 (Thr389) phosphorylation in FKBP12 knock-out 293T cells (ELISA); assay type: cell-based, human; conditions: for selectivity for FKBP12 compared with RAD001 (in words): wild-type versus FKBP12 knock-out cells; for inhibition at 10 µM: Homo sapiens, HEK-293T, 10 μM (highest tested concentration)
Procedure, shortened: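 CRISPR-generated FKBP12 knock-out HEK293T cells, alongside wild-type, were treated in duplicate for 2 hours at 37 °C with an 8–11-point dose range (0.001 pM–10 μM). Phospho-S6K1 Thr389 quantified by ELISA as an mTORC1 activity read-out, with DMSO as negative control.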

[3] = Pharmacokinetic studies in male CD-1 mice (plasma, IV and PO); assay type: in vivo, mouse; conditions: male; for clearance / Vd / bioavailability: CD-1, plasma, mouse; for clearance / Vd / half-life: IV 2 mg/kg; for clearance: read-out: CI(mL/min/kg), compounds clearance following IV administration; for Vd: read-out: Vdss (L/kg), volume of distribution following IV administration; for bioavailability: PO 20 mg/kg vs IV 2 mg/kg; for half-life / Cmax / concentration at 8 h / concentration at 24 h: CD-1, mouse plasma; for half-life: read-out: IV T1/2 (converted); for Cmax / concentration at 8 h / concentration at 24 h: PO 20 mg/kg; for concentration at 8 h: read-out: Compound concentration at 8-hour, PO administration; for concentration at 24 h: read-out: Compound concentration at 24-hour, PO administration
Experimental: Animal experiments were carried out at Wuxi AppTec. Male 6-8 weeks old CDI mice were obtained from Hilltop Labs. Following arrival at Wuxi AppTec, mice were housed in animal rooms with environmental control (temperature: 20 to 26° C.; lighting: 12 hour light/dark cycle). Mice were fed with certified pellet diet (Certified Rodent Diet #5002 by LabDiet). Water was provided to the animals ad libitum. Mice were acclimated to the facility for at least 3 days prior to starting experiments.
Appropriate amount of test article formulated in 5% ethanol, 5% Tween-80 and 5% PEG-400, 85% water. Formulation was prepared on the day of dosing and dosed within 2 hours following preparation of formulations. Dose accuracy was determined by LC-MS/MS.
Dose formulation(s) were administered following facility SOPs. Dose volumes were determined individually prior to dosing based on animals' body weights.
About 40 μL of blood samples were collected via peripheral veins (e.g. saphenous veins) at each pre-defined time point. Blood samples were collected into tubes containing K2EDTA as anti-coagulant and kept on ice until centrifugation.
Blood samples were centrifuged at 4° C., 3000 g for 5 min within half an hour of collection. Plasma was transferred into polypropylene tubes or 96-well plates, promptly frozen on dry ice and stored at −70±10° C. until analysis by LC-MS/MS.
Test compound concentration in mouse plasma was determined with LC-MS/MS method using a calibration curve with at least 6 non-zero calibration standards.
The pharmacokinetics (PK) of the test article was analyzed using Phoenix WinNonlin software (version 8.3) and non-compartmental analysis model. Derived PK parameters include, but not limited to, C0, CLp, Vdss, Cmax, Tmax, T1/2, AUC(0-t), AUC(0-inf), MRT(0-t), MRT(0-inf) and % F (bioavailability).

[4] = tested on: S6K1 (Thr389) phosphorylation (mTORC1 activity) in wild-type (WT) 293T cells; assay: Inhibition of S6K1 (Thr389) phosphorylation in wild-type 293T cells (ELISA); assay type: cell-based, human; conditions: for IC50: Homo sapiens, HEK-293T, 2 h, wild-type 293T cells, 2 hours treatment; for extent of inhibition of S6K1 (Thr389) phosphorylation / fold lower potency compared with RAD001 (by IC50): wild-type cells; for extent of inhibition of S6K1 (Thr389) phosphorylation: with increasing concentrations
Procedure, shortened: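 WT 293T cells in DMEM + 10% FBS, grown 24 h to ~80% confluence, then treated 2 h at 37 °C in duplicate with compounds over an 8–11-point range from 0.001 pM to 10 μM. DMSO vehicle served as negative control. Phospho-S6K1 (Thr389) measured by ELISA.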

[5] = In vitro microsomal metabolic stability, human liver microsomes; assay type: in vitro ADME; conditions: for Remaining (T = 60 min) / Remaining (T = NCF60 min) / half-life at 1 µM: Human liver microsomes; for Remaining (T = 60 min): with NADPH; for Remaining (T = NCF60 min): without NADPH regenerating system; for Remaining (T = 60 min) / Remaining (T = NCF60 min): 60 min; for CLint scaled at 1 µM / microsomal CLint at 1 µM: human, human liver microsomes; for CLint scaled at 1 µM / microsomal CLint at 1 µM / half-life at 1 µM: pH 7.2; for half-life at 1 µM: 0.5 mg/ml protein, NADPH
Procedure, shortened: as §1

| CLint scaled at 1 µM [1] | microsomal CLint at 1 µM [1] | half-life at 1 µM [1] | Remaining (T = 60 min) [1] | Remaining (T = NCF60 min) [1] | clearance [3] | Vd [3] | bioavailability [3] | half-life [3] | Cmax [3] | Remaining (T = 60 min) [5] | Remaining (T = NCF60 min) [5] | CLint scaled at 1 µM [5] | microsomal CLint at 1 µM [5] | half-life at 1 µM [5] | Compound | inhibition of S6K1 (Thr389) phosphorylation in the absence of FKBP12 (in words) ([2]; FKBP12 knock-out cells) | selectivity for FKBP12 compared with RAD001 (in words) [2] | IC50 [4] | extent of inhibition of S6K1 (Thr389) phosphorylation [4] | fold lower potency compared with RAD001 (by IC50) [4] | also measured |
| --- | --- | --- | --- | --- | --- | --- | --- | --- | --- | --- | --- | --- | --- | --- | --- | --- | --- | --- | --- | --- | --- |
| 41.9 mL/min/kg | 10.6 µL/min/mg | 2.18 h | 69.80% | 92.30% | 2.31 mL/min/kg | 0.828 L/kg | 28.5% | 5.25 h | 4120 ng/mL | 6.60% | 92.80% | 80.9 mL/min/kg | 89.9 µL/min/mg | 0.257 h | CO[C@@H]1CC(C[C@@H](C)[C@@H]2CC[C@H](C)/C=C(\C)[C@@H](O)[C@@H](OC)C(=O)[C@H](C)C[C@H](C)/C=C/C=C/C=C(\C)C(Nc3ccccc3)CC3CC[C@@H](C)[C@@](O)(O3)C(=O)C(=O)N3CCCC[C@H]3C(=O)O2)CC[C@H]1O (stereo partly drawn) [Compound 26, (3S,6S,7E,9R,10R,12R,14S,15E,17E,19E,23S,26R,27R,34aS)-9,27-dihydroxy-3-((R)-1-((1S,3R,4R)-4-hydroxy-3-methoxycyclohexyl)propan-2-yl)-10-methoxy-6,8,12,14,20,26-hexamethyl-21-(phenylamino)-5,6,9,10,12,13,14,21,22,23,24,25,26,27,32,33,34,34a-octadecahydro-3H-23,27-epoxypyrido[2,1-c][1]oxa[4]azacyclohentriacontine-1,11,28,29(4H,31H)-tetraone] | not inhibit S6K1 at any tested concentrations | more selective to FKBP12 compared with RAD001 | 0.55 nM | complete inhibition | – | IC50 of inhibition of S6K1 (Thr389) ([2]; FKBP12 knock-out 293T cells): not measurable/detectable; concentration at 8 h [3]: 1320 ng/mL; concentration at 24 h [3]: 184 ng/mL |
| – | < 9.6 µL/min/mg | > 2.42 h | 89% | 112% | – | – | – | – | – | 18% | 99% | 54.7 mL/min/kg | 60.8 µL/min/mg | 0.38 h | CO[C@@H]1C[C@H](C[C@@H](C)[C@@H]2CC[C@H](C)/C=C(\C)[C@@H](O)[C@@H](OC)C(=O)[C@H](C)C[C@H](C)/C=C/C=C/C=C(\C)C(Nc3cccc(C)c3)C[C@@H]3CC[C@@H](C)[C@@](O)(O3)C(=O)C(=O)N3CCCCC3C(=O)O2)CC[C@H]1O (stereo partly drawn) [Compound 50, (3S,6S,7E,9R,10R,12R,14S,15E,17E,19E,23S,26R,27R,34aS)-9,27-dihydroxy-3-((R)-1-((1S,3R,4R)-4-hydroxy-3-methoxycyclohexyl)propan-2-yl)-10-methoxy-6,8,12,14,20,26-hexamethyl-21-(m-tolylamino)-5,6,9,10,12,13,14,21,22,23,24,25,26,27,32,33,34,34a-octadecahydro-3H-23,27-epoxypyrido[2,1-c][1]oxa[4]azacyclohentriacontine-1,11,28,29(4H,31H)-tetraone] | – | selective to FKBP12 | 5.72 nM | near complete inhibition | 15 fold | inhibition at 10 µM ([2]; FKBP12 knock-out cells): 12% |
| 25.3 mL/min/kg | 6.4 µL/min/mg | 3.62 h | 83% | 96% | – | – | – | – | – | 55% | 93% | 18 mL/min/kg | 20 µL/min/mg | 1.16 h | CO[C@@H]1C[C@H](C[C@@H](C)[C@@H]2CC[C@H](C)/C=C(\C)[C@@H](O)[C@@H](OC)C(=O)[C@H](C)C[C@H](C)/C=C/C=C/C=C(\C)C(Nc3cccc(OC(F)(F)F)c3)C[C@@H]3CC[C@@H](C)[C@@](O)(O3)C(=O)C(=O)N3CCCCC3C(=O)O2)CC[C@H]1O (stereo partly drawn) [Compound 58, (3S,6S,7E,9R,10R,12R,14S,15E,17E,19E,23S,26R,27R,34aS)-9,27-dihydroxy-3-((R)-1-((1S,3R,4R)-4-hydroxy-3-methoxycyclohexyl)propan-2-yl)-10-methoxy-6,8,12,14,20,26-hexamethyl-21-((3-(trifluoromethoxy)phenyl)amino)-5,6,9,10,12,13,14,21,22,23,24,25,26,27,32,33,34,34a-octadecahydro-3H-23,27-epoxypyrido[2,1-c][1]oxa[4]azacyclohentriacontine-1,11,28,29(4H,31H)-tetraone] | inhibited the mTORC1 signaling in a dose dependent manner | relatively not FKBP12 selective | 2.94 nM | near complete inhibition | 35 fold | – |
| 64.8 mL/min/kg | 16.4 µL/min/mg | 1.41 h | 64.30% | 81.40% | 1.13 mL/min/kg | 0.475 L/kg | 17% | 5.63 h | 9180 ng/mL | 0.00% | 71.30% | – | 194 µL/min/mg | 0.119 h | CO[C@@H]1C[C@H](C[C@@H](C)[C@@H]2CC[C@H](C)/C=C(\C)[C@@H](O)[C@@H](OC)C(=O)[C@H](C)C[C@H](C)/C=C/C=C/C=C(\C)C(Nc3cnon3)C[C@@H]3CC[C@@H](C)[C@@](O)(O3)C(=O)C(=O)N3CCCCC3C(=O)O2)CC[C@H]1O (stereo partly drawn) [Compound 45, (3S,6S,7E,9R,10R,12R,14S,15E,17E,19E,23S,26R,27R,34aS)-21-((1,2,5-oxadiazol-3-yl)amino)-9,27-dihydroxy-3-((R)-1-((1S,3R,4R)-4-hydroxy-3-methoxycyclohexyl)propan-2-yl)-10-methoxy-6,8,12,14,20,26-hexamethyl-5,6,9,10,12,13,14,21,22,23,24,25,26,27,32,33,34,34a-octadecahydro-3H-23,27-epoxypyrido[2,1-c][1]oxa[4]azacyclohentriacontine-1,11,28,29(4H,31H)-tetraone] | much less inhibition of S6K1 phosphorylation | relatively more selective for FKBP12 compared with RAD001 | 8.4 nM | completely inhibit | ~18 fold | fold less potent compared with RAD001 ([2]; FKBP12 knock-out cells, at similar level of inhibition): ~100 fold; inhibition at 10 µM ([2]; FKBP12 knock-out cells): ~25%; concentration at 8 h [3]: 1520 ng/mL; concentration at 24 h [3]: 239 ng/mL |
